Measurements published in US11339207B2, “Methods and compounds for the treatment or prevention of severe influenza” (priority 2016, dated 2022).
Read-outs that look alike come from different tables or passages of the source.

What was measured:
[1] = system: HSP27 phosphorylation in Peripheral Blood Mononuclear Cells (PBMCs); assay: Western blotting of HSP27 phosphorylation in immune cells (PBMCs) after A549 viral soup; format: cell-based, human; settings: pre-incubation, FIG. 8
[2] = system: p38MAPK and HSP27 phosphorylation in A549 cells; assay: Western blotting of p38MAPK and HSP27 phosphorylation in A549 cells after A549 viral soup; format: cell-based, human; settings: FIG. 6
[3] = system: PBMCs plus granulocytes stimulated with A549 viral soup; format: cell-based, human; settings: immune cells, pre-incubation, FIG. 8
[4] = system: HSP27 phosphorylation in HUVEC cells; assay: Western blotting of HSP27 phosphorylation in HUVEC cells after HBEC viral soup; format: cell-based, human; settings: pre-incubation
influenza virus = settings: 14% among controls, cited from earlier work
[5] = system: HUVECs stimulated with HBEC viral soup; format: cell-based, human; settings: for iMax IP10: maximal inhibition, HUVEC, HBEC viral soup, secreted IP10; for levels of IP10 at higher drug concentrations: endothelial cells (HUVECs) stimulated with 70% HBEC viral soup, FIG. 10

Molecule: Cc1cc(F)ccc1-c1nc(NC(CO)CO)nc2c1ccc(=O)n2-c1c(F)cccc1F [Dilmapimod, 8-(2,6-difluorophenyl)-2-(1,3-dihydroxypropan-2-ylamino)-4-(4-fluoro-2-methylphenyl)pyrido[2,3-d]pyrimidin-7-one]
- induction of HSP27 phosphorylation by A549 viral soup [1]: dose dependently inhibit
- induction of HSP27 phosphorylation by A549 viral soup [2]: dose dependently inhibit
- induction of p38MAPK phosphorylation by A549 viral soup [2]: dose dependently inhibit
- A549 viral soup induced release of CXCL8 [3]: significantly attenuate
- A549 viral soup induced release of IL-1-β [3]: significantly attenuate
- A549 viral soup induced release of IL-6 [3]: significantly attenuate
- A549 viral soup induced release of TNFα [3]: significantly attenuate
- induction of HSP27 phosphorylation by HBEC viral soup [4]: dose dependently inhibit

Molecule: CC[C@H]1OC(=O)[C@H](C)[C@@H](O[C@H]2C[C@@](C)(OC)[C@@H](O)[C@H](C)O2)[C@H](C)[C@@H](O[C@@H]2O[C@H](C)C[C@H](N(C)C)[C@H]2O)[C@](C)(O)C[C@@H](C)C(=O)[C@H](C)[C@@H](O)[C@]1(C)O [EM, erythromycin]
- survival rate of the virus-infected mice at Day 20 of infection (influenza virus; 1.0 mg/kg/d): 42%
- survival rate of the virus-infected mice at Day 20 of infection (influenza virus; 3.3 mg/kg/d): 57%

Molecule: CNC(=O)c1ccc(C)c(-n2c(C)cc(OCc3ccc(F)cc3F)c(Br)c2=O)c1 [PH797804, 3-[3-bromo-4-[(2,4-difluorophenyl)methoxy]-6-methyl-2-oxopyridin-1-yl]-N,4-dimethylbenzamide]
- iMax IP10 [5]: 88%
- induction of HSP27 phosphorylation by A549 viral soup [1]: dose dependently inhibit
- induction of HSP27 phosphorylation by A549 viral soup [2]: dose dependently inhibit
- induction of p38MAPK phosphorylation by A549 viral soup [2]: dose dependently inhibit
- A549 viral soup induced release of CXCL8 [3]: significantly attenuate
- A549 viral soup induced release of IL-1-β [3]: significantly attenuate
- A549 viral soup induced release of IL-6 [3]: significantly attenuate
- A549 viral soup induced release of TNFα [3]: significantly attenuate
- induction of HSP27 phosphorylation by HBEC viral soup [4]: dose dependently inhibit

Molecule: CC[C@H](C)C(=O)O[C@H]1C[C@H](O)C=C2C=C[C@H](C)[C@H](CC[C@@H](O)C[C@@H](O)CC(=O)O)[C@H]21 [Pravastatin]
- iMax IP10 [5]: 35%

Molecule: Nc1ccc2ncnc(NCCc3ccc(Oc4ccccc4)cc3)c2c1 [QNZ (EVP4593)]
- iMax IP10 [5]: 72%

Molecule: COc1cc(F)c(F)c(Nc2ccc(I)cc2F)c1NS(=O)(=O)C1(C[C@H](O)CO)CC1 [Refametinib]
- levels of IP10 at higher drug concentrations [5]: appeared to increase levels of IP10

Molecule: Selumetinib
- levels of IP10 at higher drug concentrations [5]: appeared to increase levels of IP10
